Data as given in the kinase profiling compilation of Christmann-Franck et al. (2016).

Columns and labels:
Assay in all cases: radiometric filter-binding kinase assay
[1] = system: AKT2 (human), P31751 [S474D]
AURKB (human) = AURKB (human) (UniProt Q96GD4)
CAMKK2 (human) = CAMKK2 (human) (UniProt Q96RR4)
CHEK1 (human) = CHEK1 (human) (UniProt O14757)
CHEK2 (human) = CHEK2 (human) (UniProt O96017)
EPHB4 (human) = EPHB4 (human) (UniProt P54760)
GCK (human) = GCK (human) (UniProt Q12851); details: compound 0.1 µM
IGF1R (human) = IGF1R (human) (UniProt P08069)
IGF1R (human), sequence (P08069 whole entry, looked up): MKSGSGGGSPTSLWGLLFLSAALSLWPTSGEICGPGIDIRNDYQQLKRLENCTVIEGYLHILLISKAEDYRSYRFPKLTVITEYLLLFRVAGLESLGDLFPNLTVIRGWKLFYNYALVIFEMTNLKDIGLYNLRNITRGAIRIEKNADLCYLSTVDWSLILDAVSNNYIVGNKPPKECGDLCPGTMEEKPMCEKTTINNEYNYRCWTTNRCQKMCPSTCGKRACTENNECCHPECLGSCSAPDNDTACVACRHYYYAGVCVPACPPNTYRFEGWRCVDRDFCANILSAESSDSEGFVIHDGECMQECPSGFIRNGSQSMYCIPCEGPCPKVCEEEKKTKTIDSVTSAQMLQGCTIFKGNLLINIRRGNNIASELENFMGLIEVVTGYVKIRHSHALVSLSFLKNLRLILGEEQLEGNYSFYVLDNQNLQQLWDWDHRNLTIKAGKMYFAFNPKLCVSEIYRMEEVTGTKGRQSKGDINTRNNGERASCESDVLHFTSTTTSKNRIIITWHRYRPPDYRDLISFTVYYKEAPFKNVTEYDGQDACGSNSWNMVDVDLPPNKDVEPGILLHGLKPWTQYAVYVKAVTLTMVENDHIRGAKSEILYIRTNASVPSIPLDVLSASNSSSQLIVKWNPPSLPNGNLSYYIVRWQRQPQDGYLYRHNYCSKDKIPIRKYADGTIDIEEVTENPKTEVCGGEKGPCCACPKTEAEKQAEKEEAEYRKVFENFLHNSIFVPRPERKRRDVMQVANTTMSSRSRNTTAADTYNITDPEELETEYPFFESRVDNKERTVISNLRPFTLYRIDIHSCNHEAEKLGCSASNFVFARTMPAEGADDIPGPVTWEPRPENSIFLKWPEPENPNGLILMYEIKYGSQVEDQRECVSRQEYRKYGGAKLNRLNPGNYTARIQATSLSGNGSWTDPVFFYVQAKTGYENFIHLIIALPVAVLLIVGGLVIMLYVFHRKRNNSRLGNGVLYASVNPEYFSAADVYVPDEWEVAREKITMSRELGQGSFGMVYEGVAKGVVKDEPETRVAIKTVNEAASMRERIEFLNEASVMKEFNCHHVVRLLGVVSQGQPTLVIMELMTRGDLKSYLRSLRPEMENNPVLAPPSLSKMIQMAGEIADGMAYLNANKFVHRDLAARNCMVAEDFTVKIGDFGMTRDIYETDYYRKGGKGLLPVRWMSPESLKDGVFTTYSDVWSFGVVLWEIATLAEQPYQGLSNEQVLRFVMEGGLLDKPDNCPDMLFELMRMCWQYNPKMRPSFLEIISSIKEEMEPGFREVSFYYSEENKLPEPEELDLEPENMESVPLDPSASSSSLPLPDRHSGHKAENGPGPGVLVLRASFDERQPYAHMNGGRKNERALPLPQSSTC

IKBKB (human) = IKBKB (human) (UniProt O14920)
MAP2K1 (human) = MAP2K1 (human) (UniProt Q02750)
MAP3K1 (human) = MAP3K1 (human) (UniProt Q13233)
MAP3K1 (human), sequence (Q13233 whole entry, looked up): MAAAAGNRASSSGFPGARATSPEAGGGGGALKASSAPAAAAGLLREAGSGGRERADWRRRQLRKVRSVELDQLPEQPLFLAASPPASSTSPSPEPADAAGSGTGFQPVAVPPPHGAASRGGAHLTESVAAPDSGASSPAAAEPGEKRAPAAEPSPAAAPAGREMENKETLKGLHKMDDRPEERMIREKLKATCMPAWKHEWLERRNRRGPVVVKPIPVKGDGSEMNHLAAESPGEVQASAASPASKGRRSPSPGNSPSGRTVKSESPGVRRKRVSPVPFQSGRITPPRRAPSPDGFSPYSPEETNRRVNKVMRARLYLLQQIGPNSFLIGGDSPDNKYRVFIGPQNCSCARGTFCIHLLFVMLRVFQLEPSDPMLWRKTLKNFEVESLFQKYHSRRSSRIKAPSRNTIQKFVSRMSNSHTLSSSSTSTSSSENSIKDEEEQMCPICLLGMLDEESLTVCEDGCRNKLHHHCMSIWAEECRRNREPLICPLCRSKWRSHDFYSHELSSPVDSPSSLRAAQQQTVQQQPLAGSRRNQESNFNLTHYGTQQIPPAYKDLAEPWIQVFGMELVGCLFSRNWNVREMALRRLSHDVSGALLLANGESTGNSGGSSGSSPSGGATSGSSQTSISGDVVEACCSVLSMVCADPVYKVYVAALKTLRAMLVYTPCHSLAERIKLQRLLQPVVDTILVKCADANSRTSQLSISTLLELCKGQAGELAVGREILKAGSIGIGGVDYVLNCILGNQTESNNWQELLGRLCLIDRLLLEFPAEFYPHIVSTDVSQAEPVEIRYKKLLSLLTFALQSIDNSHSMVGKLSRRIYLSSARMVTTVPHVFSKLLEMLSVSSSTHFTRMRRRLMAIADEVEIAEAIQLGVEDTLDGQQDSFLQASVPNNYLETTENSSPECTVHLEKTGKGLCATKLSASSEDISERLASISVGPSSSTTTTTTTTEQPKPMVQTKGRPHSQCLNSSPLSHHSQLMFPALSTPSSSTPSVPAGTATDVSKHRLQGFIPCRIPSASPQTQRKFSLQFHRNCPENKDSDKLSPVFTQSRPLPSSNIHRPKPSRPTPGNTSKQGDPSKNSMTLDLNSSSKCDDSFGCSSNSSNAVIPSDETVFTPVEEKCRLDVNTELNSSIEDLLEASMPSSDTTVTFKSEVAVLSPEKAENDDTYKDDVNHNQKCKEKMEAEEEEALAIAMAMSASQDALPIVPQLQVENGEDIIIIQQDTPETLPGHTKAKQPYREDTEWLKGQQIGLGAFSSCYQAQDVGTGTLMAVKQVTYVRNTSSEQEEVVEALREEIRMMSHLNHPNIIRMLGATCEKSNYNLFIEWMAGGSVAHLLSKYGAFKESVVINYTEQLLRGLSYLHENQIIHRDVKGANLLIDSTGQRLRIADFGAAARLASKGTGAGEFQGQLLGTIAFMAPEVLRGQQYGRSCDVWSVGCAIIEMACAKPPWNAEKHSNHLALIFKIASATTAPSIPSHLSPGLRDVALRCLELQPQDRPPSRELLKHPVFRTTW

MAP3K5 (human) = MAP3K5 (human) (UniProt Q99683)
MAPK1 (human) = MAPK1 (human) (UniProt P28482)
MAPK1 (human), sequence (P28482 whole entry, looked up): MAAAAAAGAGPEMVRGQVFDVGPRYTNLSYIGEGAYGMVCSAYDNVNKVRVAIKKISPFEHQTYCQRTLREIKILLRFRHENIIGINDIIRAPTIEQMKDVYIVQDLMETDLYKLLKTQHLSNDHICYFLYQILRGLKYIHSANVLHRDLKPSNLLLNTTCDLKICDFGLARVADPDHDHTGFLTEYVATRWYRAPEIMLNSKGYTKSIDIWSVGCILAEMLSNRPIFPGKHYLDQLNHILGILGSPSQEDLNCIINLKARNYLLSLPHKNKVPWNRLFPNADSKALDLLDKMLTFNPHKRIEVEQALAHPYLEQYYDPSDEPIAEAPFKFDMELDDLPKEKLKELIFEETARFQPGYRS

MAPK10 (human) = MAPK10 (human) (UniProt P53779)
MAPK15 (human) = MAPK15 (human) (UniProt Q8TD08)
MAPK3 (human) = MAPK3 (human) (UniProt P27361)
MAPK9 (human) = MAPK9 (human) (UniProt P45984); details: compound 1.0 µM
MAPKAPK2 (human) = MAPKAPK2 (human) (UniProt P49137); details: compound 1.0 µM
MARK2 (human) = MARK2 (human) (UniProt Q7KZI7)
MINK1 (human) = MINK1 (human) (UniProt Q8N4C8)
MKNK1 (human) = MKNK1 (human) (UniProt Q9BUB5)
MKNK1 (human), sequence (Q9BUB5 whole entry, looked up): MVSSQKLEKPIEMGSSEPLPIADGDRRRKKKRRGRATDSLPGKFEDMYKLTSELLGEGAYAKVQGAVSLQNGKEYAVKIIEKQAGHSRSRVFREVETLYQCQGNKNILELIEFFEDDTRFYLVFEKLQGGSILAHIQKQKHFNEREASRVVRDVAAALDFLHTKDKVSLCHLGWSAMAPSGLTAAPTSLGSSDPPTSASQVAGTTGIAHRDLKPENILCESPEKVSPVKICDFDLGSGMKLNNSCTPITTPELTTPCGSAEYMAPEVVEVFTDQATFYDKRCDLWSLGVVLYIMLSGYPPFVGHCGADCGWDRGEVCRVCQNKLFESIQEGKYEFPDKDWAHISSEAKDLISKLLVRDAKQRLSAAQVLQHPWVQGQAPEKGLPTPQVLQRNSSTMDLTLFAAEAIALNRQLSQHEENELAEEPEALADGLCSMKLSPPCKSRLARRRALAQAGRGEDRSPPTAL

MKNK2 (human) = MKNK2 (human) (UniProt Q9HBH9)
NEK2 (human) = NEK2 (human) (UniProt P51955)
NEK2 (human), sequence (P51955 whole entry, looked up): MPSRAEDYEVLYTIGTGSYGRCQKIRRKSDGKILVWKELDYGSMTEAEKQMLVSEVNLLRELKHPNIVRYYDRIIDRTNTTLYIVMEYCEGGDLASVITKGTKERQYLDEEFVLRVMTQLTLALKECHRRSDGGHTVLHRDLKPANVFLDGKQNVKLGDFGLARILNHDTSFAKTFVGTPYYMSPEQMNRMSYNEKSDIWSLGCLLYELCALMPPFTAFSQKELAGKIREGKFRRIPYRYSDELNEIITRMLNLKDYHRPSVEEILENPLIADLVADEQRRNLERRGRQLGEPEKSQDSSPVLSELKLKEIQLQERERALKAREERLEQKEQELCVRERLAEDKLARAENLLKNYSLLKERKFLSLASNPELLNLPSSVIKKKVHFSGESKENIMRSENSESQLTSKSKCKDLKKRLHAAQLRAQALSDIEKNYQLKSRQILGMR

NTRK1 (human) = NTRK1 (human) (UniProt P04629)
NTRK1 (human), sequence (P04629 whole entry, looked up): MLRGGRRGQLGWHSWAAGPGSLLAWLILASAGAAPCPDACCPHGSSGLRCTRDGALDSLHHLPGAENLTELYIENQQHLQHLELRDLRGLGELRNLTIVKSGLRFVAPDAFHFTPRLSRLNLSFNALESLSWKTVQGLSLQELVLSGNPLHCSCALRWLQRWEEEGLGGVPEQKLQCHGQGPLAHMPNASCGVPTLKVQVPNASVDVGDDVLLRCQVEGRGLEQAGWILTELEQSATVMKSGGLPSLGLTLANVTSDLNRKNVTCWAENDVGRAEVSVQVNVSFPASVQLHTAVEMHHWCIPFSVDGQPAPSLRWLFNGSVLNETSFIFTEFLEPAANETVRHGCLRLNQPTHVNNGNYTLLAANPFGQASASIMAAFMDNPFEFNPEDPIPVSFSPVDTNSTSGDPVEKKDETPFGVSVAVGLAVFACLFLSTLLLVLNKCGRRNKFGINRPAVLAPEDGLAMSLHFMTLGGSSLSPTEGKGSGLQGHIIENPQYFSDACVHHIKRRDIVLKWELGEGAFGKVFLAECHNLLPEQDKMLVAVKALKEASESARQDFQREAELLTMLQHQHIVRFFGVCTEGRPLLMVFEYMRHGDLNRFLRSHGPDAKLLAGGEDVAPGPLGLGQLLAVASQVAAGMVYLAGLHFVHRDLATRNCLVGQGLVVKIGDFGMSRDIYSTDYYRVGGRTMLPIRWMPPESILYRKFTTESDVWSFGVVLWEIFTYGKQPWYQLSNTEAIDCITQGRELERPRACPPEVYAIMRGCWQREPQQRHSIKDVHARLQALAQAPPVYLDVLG

PHKG1 (human) = PHKG1 (human) (UniProt Q16816)
PIM2 (human) = PIM2 (human) (UniProt Q9P1W9)
PKN2 (human) = PKN2 (human) (UniProt Q16513)
PRKAA1 or PRKAA2 (rat) = details: accession and sequence are those of the human protein
PRKACA (human) = PRKACA (human) (UniProt P17612)
PRKCA (human) = PRKCA (human) (UniProt P17252)
RPS6KA1 KD1 KD2 (human) = RPS6KA1 KD1 KD2 (human) (UniProt Q15418); details: compound 1.0 µM
SRC (human) = SRC (human) (UniProt P12931)
[2] = molecular target: STK11 CAB39 STRADA (human) (UniProt Q9Y376+Q7RTN6+Q15831)
STK3 (human) = STK3 (human) (UniProt Q13188); details: compound 0.1 µM
YES1 (human) = YES1 (human) (UniProt P07947)

Question: For `COc1ccc(-n2ncc3cnc(Nc4cc(OC)c(OC)c(OCCCN5CCN(C)CC5)c4)nc32)cc1`, which residual activity ([1]; compound 0.1 µM) is on record?
Answer: 88%

Question: What about the residual activity ([1]; compound 1.0 µM) of the same compound?
Answer: 77%

Question: And the residual activity (AURKB (human); compound 0.1 µM)?
Answer: 36%

Question: What about the residual activity (AURKB (human); compound 1.0 µM) of the same compound?
Answer: 11%

Question: And the residual activity (CAMKK2 (human); compound 0.1 µM)?
Answer: 58%

Question: And the residual activity (CAMKK2 (human); compound 1.0 µM)?
Answer: 28%

Question: And the residual activity (CHEK1 (human); compound 0.1 µM)?
Answer: 72%

Question: And the residual activity (CHEK1 (human); compound 1.0 µM)?
Answer: 20%

Question: What about the residual activity (CHEK2 (human); compound 0.1 µM) of the same compound?
Answer: 48%

Question: What about the residual activity (CHEK2 (human); compound 1.0 µM) of the same compound?
Answer: 12%

Question: What about the residual activity (EPHB4 (human); compound 0.1 µM) of the same compound?
Answer: 69%

Question: And the residual activity (EPHB4 (human); compound 1.0 µM)?
Answer: 3%

Question: And the residual activity (GCK (human))?
Answer: 29%

Question: And the residual activity (IGF1R (human); compound 0.1 µM)?
Answer: 104%

Question: And the residual activity (IGF1R (human); compound 1.0 µM)?
Answer: 6%

Question: What about the residual activity (IKBKB (human); compound 0.1 µM) of the same compound?
Answer: 86%

Question: What about the residual activity (IKBKB (human); compound 1.0 µM) of the same compound?
Answer: 55%

Question: And the residual activity (MAP2K1 (human); compound 0.1 µM)?
Answer: 40%

Question: What about the residual activity (MAP2K1 (human); compound 1.0 µM) of the same compound?
Answer: 13%

Question: And the residual activity (MAP3K1 (human); compound 0.1 µM)?
Answer: 103%

Question: And the residual activity (MAP3K1 (human); compound 1.0 µM)?
Answer: 92%

Question: And the residual activity (MAP3K5 (human); compound 0.1 µM)?
Answer: 99%

Question: What about the residual activity (MAP3K5 (human); compound 1.0 µM) of the same compound?
Answer: 77%

Question: What about the residual activity (MAPK1 (human); compound 0.1 µM) of the same compound?
Answer: 84%

Question: What about the residual activity (MAPK1 (human); compound 1.0 µM) of the same compound?
Answer: 57%

Question: What about the residual activity (MAPK10 (human); compound 0.1 µM) of the same compound?
Answer: 65%

Question: What about the residual activity (MAPK10 (human); compound 1.0 µM) of the same compound?
Answer: 39%

Question: And the residual activity (MAPK15 (human); compound 0.1 µM)?
Answer: 22%

Question: And the residual activity (MAPK15 (human); compound 1.0 µM)?
Answer: 4%

Question: What about the residual activity (MAPK3 (human); compound 0.1 µM) of the same compound?
Answer: 111%

Question: What about the residual activity (MAPK3 (human); compound 1.0 µM) of the same compound?
Answer: 82%

Question: What about the residual activity (MAPK9 (human)) of the same compound?
Answer: 33%

Question: What about the residual activity (MAPKAPK2 (human)) of the same compound?
Answer: 108%

Question: What about the residual activity (MARK2 (human); compound 0.1 µM) of the same compound?
Answer: 67%

Question: What about the residual activity (MARK2 (human); compound 1.0 µM) of the same compound?
Answer: 28%

Question: And the residual activity (MINK1 (human); compound 0.1 µM)?
Answer: 104%

Question: What about the residual activity (MINK1 (human); compound 1.0 µM) of the same compound?
Answer: 57%

Question: And the residual activity (MKNK1 (human); compound 0.1 µM)?
Answer: 59%

Question: And the residual activity (MKNK1 (human); compound 1.0 µM)?
Answer: 17%

Question: And the residual activity (MKNK2 (human); compound 0.1 µM)?
Answer: 67%

Question: And the residual activity (MKNK2 (human); compound 1.0 µM)?
Answer: 17%

Question: And the residual activity (NEK2 (human); compound 0.1 µM)?
Answer: 22%

Question: What about the residual activity (NEK2 (human); compound 1.0 µM) of the same compound?
Answer: 3%

Question: And the residual activity (NTRK1 (human); compound 0.1 µM)?
Answer: 32%

Question: And the residual activity (NTRK1 (human); compound 1.0 µM)?
Answer: 11%

Question: What about the residual activity (PHKG1 (human); compound 0.1 µM) of the same compound?
Answer: 56%

Question: And the residual activity (PHKG1 (human); compound 1.0 µM)?
Answer: 12%

Question: And the residual activity (PIM2 (human); compound 0.1 µM)?
Answer: 108%

Question: And the residual activity (PIM2 (human); compound 1.0 µM)?
Answer: 106%

Question: What about the residual activity (PKN2 (human); compound 0.1 µM) of the same compound?
Answer: 57%

Question: What about the residual activity (PKN2 (human); compound 1.0 µM) of the same compound?
Answer: 27%

Question: And the residual activity (PRKAA1 or PRKAA2 (rat); compound 0.1 µM)?
Answer: 25%

Question: What about the residual activity (PRKAA1 or PRKAA2 (rat); compound 1.0 µM) of the same compound?
Answer: 22%

Question: And the residual activity (PRKACA (human); compound 0.1 µM)?
Answer: 78%

Question: And the residual activity (PRKACA (human); compound 1.0 µM)?
Answer: 26%

Question: What about the residual activity (PRKCA (human); compound 0.1 µM) of the same compound?
Answer: 95%

Question: What about the residual activity (PRKCA (human); compound 1.0 µM) of the same compound?
Answer: 56%

Question: What about the residual activity (RPS6KA1 KD1 KD2 (human)) of the same compound?
Answer: 7%

Question: And the residual activity (SRC (human); compound 0.1 µM)?
Answer: 7%

Question: And the residual activity (SRC (human); compound 1.0 µM)?
Answer: 3%

Question: What about the residual activity ([2]; compound 0.1 µM) of the same compound?
Answer: 119%

Question: And the residual activity ([2]; compound 1.0 µM)?
Answer: 73%

Question: What about the residual activity (STK3 (human)) of the same compound?
Answer: 78%

Question: What about the residual activity (YES1 (human); compound 0.1 µM) of the same compound?
Answer: 16%

Question: And the residual activity (YES1 (human); compound 1.0 µM)?
Answer: 7%
